# Patent publication US12150942B2, “Cerdulatinib for treating myeloma” (Alexion Pharmaceuticals, Inc., priority 2015, dated 2024)
# “Also recorded” adds a separate entry of the source.
# Key:
# [1] = test system: multiple myeloma cell lines (LP1, OPM2, MOLP1, RPMI8226, U266B1, NCIH929); test: Caspase3 activation (apoptosis) in multiple myeloma cell lines; type: cell-based; conditions: FGFR3 positive and FGFR3 negative MM cell lines; BI-D1870 at 1.2 μM, 2.5 μM, 5 μM
# Procedure: (§1) Six multiple myeloma cell lines were tested in this example for the expression level of p90RSK. The cell lines included LP1, OPM2, MOLP1, RPMI8226, U266B1, and NCIH929. Beta-actin was used as control, and the expression levels of FGF receptor 3 (FGFR3), phospho-S380 RSK. and RSK1/RSK2/RSK3 were also measured.
# A p90RSK inhibitor, BI-D1870 (see, e.g., Sapkota et al., Biochem J. 2007, 401(Pt 1): 29-38), was added to the medium for each cell line at three difference concentrations. 1.2 μM, 2.5 μM, and 5 μM.
# (§2) Cerdulatinib was tested with same cell lines as used in Example 1. […] Also like BI-D1870, there was no relationship between the activity of cerdulatinib and the status of FGFR3.
# [2] = test system: multiple myeloma cell lines (LP1, OPM2, MOLP1, RPMI8226, U266B1, NCIH929); test: Cell proliferation (EdU as indicator) in multiple myeloma cell lines; type: cell-based; conditions: FGFR3 positive and FGFR3 negative MM cell lines
# Procedure: as §1, §2
# [3] = test system: AML (Acute Myeloid Leukemia) cell lines; test: Cytotoxicity in AML cell lines; type: cell-based; conditions: four different AML cell lines; compared with Ruxolitinib and Comp A
# Procedure: The cytotoxicity of cerdulatinib in AML (Acute Myeloid Leukemia) was tested in four different cell lines.
# [4] = test system: patients with CLL/SLL or B cell NHL; test: Safety in 3+3 dose escalation study; type: in vivo, human
# Procedure: (§3) Methods: This experiment was a 3+3 dose escalation study with 28-day cycles and doses studied ranging from 15 mg to 100 mg QD, and up to 45 mg BID. PK, PD, and safety were monitored. Clinical response was assessed by standard criteria. The level of inhibition of SYK and JAK was determined by multiple whole blood assays measuring signaling via BCR, IL2, IL4, IL6, and GM-CSF. Serum markers of tumor burden-CCL3, CCL4, and other markers of inflammation-B2M, CRP, were also measured.
# (§4) Results: As of Jan. 7, 2016, 41 patients (pt) with CLL/SLL or B cell NHL were dosed. Median age was 67 years (range 23-85) and median prior therapies (tx) was 3 (range 1-8). […] The patient with grade 3 AST had tumor progression to the liver. The pancreatitis at 45 mg BID was considered at DLT and the cohort is expanding to approximately 6 patients.
# SYK and JAK signaling = test: Whole blood assays of SYK and JAK signaling (BCR, IL2, IL4, IL6, GM-CSF); type: in vivo, human; conditions: 45 mg BID; steady-state Cmin; peripheral blood assays
# Procedure: as §3
# [5] = test system: DLBCL, MCL, Burkitt's lymphoma, ALL, MM and AML cells; test: Cytotoxicity (IC50) across cancer types; type: cell-based
# Description: The cytotoxicity of cerdulatinib was also compared to Comp A in other types of cancer cells.
# [6] = test system: patients with CLL/SLL or B cell NHL; test: Clinical response by standard criteria in dose escalation study; type: in vivo, human; conditions: 28-day cycles
# Procedure: as §3, §4
# [7] = test system: serum markers of inflammation (B2M, CRP); test: Serum markers of inflammation in dosed patients; type: in vivo, human; conditions: once daily 40-100 mg
# Procedure: as §3
# [8] = Pharmacokinetics in 3+3 dose escalation study; type: in vivo, human
# Procedure: as §3
structure (smiles),measurement,setting,value
"CC(C)CCN1c2nc(Nc3cc(F)c(O)c(F)c3)ncc2N(C)C(=O)C1C (stereo not shown) [BI-D1870, reference compound]",activation of Caspase3 expression (indicator of apoptosis),[1],dose-dependently activated the expression of Caspase3
same,inhibition of cell proliferation (EdU as indicator),[2],dose-dependently inhibited cell proliferation
"CCS(=O)(=O)N1CCN(c2ccc(Nc3ncc(C(N)=O)c(NC4CC4)n3)cc2)CC1 [cerdulatinib, 4-(cyclopropylamino)-2-(4-(4-(ethylsulfonyl)piperazin-1-yl)phenylamino)pyrimidine-5-carboxamide]",activation of Caspase3 expression (indicator of apoptosis),[1],activated apoptosis; also recorded: dose-dependently activated caspase3 expression
same,cytotoxicity in AML cells,[3],"more active than Ruxolitinib, a JAK inhibitor, and Comp A; also recorded: active in killing AML cells"
same,tolerability,"[4]; 15 mg to 100 mg QD, up to 45 mg BID, 41 patients",well tolerated
same,treatment emergent AEs of ≥ grade 3 deemed related to study drug,[4]; 30 mg,"neutropenia (n=2), anemia (n=1), and pneumocystis pneumonia (grade 5, n=1)"
same,treatment emergent AEs of ≥ grade 3 deemed related to study drug,[4]; 45 mg,"anemia, AST increase, hypotension, thrombocytopenia (n=1 for each), and fatigue (n=2)"
same,treatment emergent AEs of ≥ grade 3 deemed related to study drug,"[4]; 45 mg BID, considered DLT",pancreatitis (n=1)
same,treatment emergent AEs of ≥ grade 3 deemed related to study drug,[4]; 50 mg,"anemia, neutropenia, abdominal pain, pneumonia, and fatigue (n=1 for each)"
same,treatment emergent AEs of ≥ grade 3 deemed related to study drug,[4]; 65 mg,diarrhea and fatigue (n=1 for each)
same,treatment emergent AEs of ≥ grade 3 deemed related to study drug,[4]; 100 mg,nausea (n=1)
same,inhibition of SYK and JAK,SYK and JAK signaling,complete inhibition
same,IC50 (cytotoxicity) compared to Comp A,[5],more potent than Comp A
same,time at which responses occurred,[6],2 cycles of tx
same,inhibition of serum markers of inflammation,[7],Significant inhibition
same,inhibition of cell proliferation (EdU as indicator),[2],dose-dependently inhibited cell proliferation
same,steady-state Cmin,[8]; 45 mg BID,approximately 1.5 μM
same,change in systemic exposure,[8]; 45 mg BID relative to previous dose levels,approximate doubling in exposure; also recorded: doubled
same,average steady state Cmin,"[8]; 40-100 mg dose range, once daily",700 ± 200 nM
same,Cmax,"[8]; human, in vivo, 40-100 mg dose range, once daily, read-out: average steady state Cmax",1380 nM
same,half-life,"[8]; human, in vivo, patients, once daily dosing",12 to 16 h
same,solubility / dissolution,[8]; inferred from plateau of exposure over 40-100 mg,low pH solubility appeared to limit dissolution
